Entries after “also recorded” stand apart in the source; their conditions may differ. Like-named read-outs stand apart in the source and are kept apart here.
Columns and labels:
[1] = test system: NTox released by Aβ1-42-stimulated microglia (neuron killing); experiment: cells; type: cell-based, rat
Excerpt: . Briefly, hippocampal cells obtained from embryonic stage 18 rat fetuses were dispersed mechanically in the presence of 0.125% trypsin and plated onto poly-L-lysine coated glass coverslips in 24 well plates at 250,000 cells per well (resulting in adhering cell densities of about 1250 cells per mm^2) in chemically-defined N2 culture media containing 5% fetal bovine serum. Gradual reduction of serum began on day 10 in vitro with daily 1:1 volume replacements with chemically-defined media, until a final concentration of 0.6% serum was achieved. […]; see FIG. 18). In order to eliminate microglia, cultures were exposed to saporin (sap; a ribosome-inactivating protein; Davis and Wiley, 1989) coupled to acetylated LDL (ac-LDL) at a concentration of 10 μg/ml for 12 hours. […] Cultures depleted of microglia were then exposed to test substances in the presence or absence of exogenous microglia (100,000 cells per culture). […]. Controls included cultures without saporin-treatment, cultures without test substances, and cultures with test substances but lacking microglia.
(§1) On day 14 of culture, immediately following saporin treatment, test substances were added to the hippocampal cultures. Synthetic peptide were supplied as 1 mM stock solutions in 0.1 M phosphate buffered saline, pH 7.2, stored for at least 1 week at 4° C. before use. After 72 hours incubation, the cultures were fixed in 4% paraformaldehyde at room temperature for 18 hours and immuno-stained by overnight incubation with a mixture of anti-neurofilament antibodies (NF; SMI-311, 1:600; Stemberger Monoclonals, Inc.) plus anti-MAP-2 (Boehringer Mannheim, 184959; 1:600) at 4° C. in the presence of 2% horse serum and 0.3% triton X-100 to delineate both neuronal cell bodies and neurites. Astroglia were visualized using sheep anti-glial fibrillary acidic protein (GFAP, Sigma) as described by Giulian et al., 1989. Finally, to label all cell nuclei, the coverslips were exposed to 0.01% bisbenzimide (Hoechst 33258; Sigma) in PBS, pH 6.9, and rinsed in distilled water and mounted in glycerin. Immuno-labeled cells per field and nuclei per field were scored at 200X magnification using fluorescence microscopy. Data were expressed as % mean survival expressed in terms of parallel untreated control cultures after scoring at least 20 randomly selected fields for each of 3 coverslips.
The procedures described above and by Giulian et al, 1996, provided for the identification of tyramine compounds as therapeutic agents for neurodegenerative diseases or disorders including, for example, Alzheimer's disease. Cells from the brain of fetal rats were grown in tissue cultures. Microglial populations within the cultures were controlled following the method described in Example 5 above. Known amounts of Aβ peptides coupled to microspheres were added to the culture. The Aβ spheres stimulated the microglia to release NTox, which in turn destroyed the neurons. The neurons in the cultures were monitored for survival by immuno-staining.
Generally, drug assays involve the addition of known concentrations of a test agent over a range of concentrations. After 72 hours, the experiment is stopped and the neurons are identified by immuno-staining. The data is expressed as % neuronal survival […]. Dose response curves are then used to estimate Effective Dose50 % (ED50) of neuroprotective agents. […].
In this experiment, about 65% of the neurons were destroyed by the Aβ-stimulated microglia. […] Other tyramine compounds, including tyrosine esters, were neuroprotective (FIG. 30).
Following the methods described herein, numerous compounds were examined to determine their neuroprotective activity. […]

NTox = experiment: protection of neurons against isolated NTox applied directly; type: cell-based; settings: isolated NTox; FIGS. 13, 32
Excerpt: FIG. 32 is a graph showing the specificity of tyramine compounds to NTox. […].
Initial studies to characterize the neuroprotective effect of tyramine compounds employed microglia-neuron co-culture assays in the presence of Aβ or isolated senile plaques. Inhibition of neuron killing in […]--inhibition of microglial activation by Aβ or plaques; inhibition of NTox production and release by microglia; or inhibition of action of NTox upon neurons. […] Effective doses in the low nmolar range show the tyramine compounds to be very potent agents compared with low μmolar range of other neuroprotective drugs under development for neurological disorders.

quinolinic acid (QUIN) = experiment: protection of neurons against quinolinic acid; type: cell-based; settings: QUIN (100 μM in FIG. 13)
Excerpt: FIG. 32 is a graph showing the specificity of tyramine compounds to NTox. […]

rat microglia = experiment: binding of Aβ-coupled microspheres to microglia; settings: 4 hours at 37° C. (72 h in FIG. 23)
microglia = experiment: inhibition of SpheresAβ1-42 binding to microglia; parameters: species or system rat; settings: for inhibition of SpheresAβ1-42 binding by peptides: 10 μmoles/l, 4 hours, 37° C.; for SpheresAβ1-42 binding after enzymatic treatment of microglia: trypsin 5000 units/ml, heparinase 0.01 units/ml, chondroitinase ABC 0.02 units/ml
Protocol: (§2) Spheresmal-BSA (which bind to scavenger receptors) or SpheresAβ1-42 were incubated with microglia for 4 hours following pre-treatment of cells with trypsin (5000 units/ml at 37° C. for 60 min followed by inactivation with soybean trypsin inhibitor), with heparinase (heparin lyase EC 4.2.2.7; two consecutive treatments each of 0.01 units/ml for 60 min), or with chondroitinase ABC (chondroitin ABC lyase EC 4.3.3.4; two consecutive treatments each of 0.02 units/ml for 60 min). […] Microglia mixed with hippocampal neurons were treated with combinations of β-D-xyloside (1 mm), heparinase (0.02 units/ml), or chondroitinase (0.04 units/ml) and then exposed to plaques.
Each well then received 250,000 SpheresAβ1-42 or Spheresmal-BSA in the presence or absence of Aβ peptides, GAGs, or scavenger receptor ligands. Binding assays were carried out at 37° C. for 4 hours after which coverslips were dipped 10 times in phosphate buffer and fixed with 4% buffered paraformaldehyde. Microsphere adherence to cells was scored at 200 magnification with phase/fluorescence microscopy. Data, expressed as % inhibition of sphere binding, was calculated from total number of spheres per field noted for control cultures receiving spheres only. Values are based upon at least 3 coverslips from 2 independent experiments. […] Washed spheres were resuspended in 0.2 M borate buffer (pH 8.5) in the presence of 300 μg Aβ or 400 μg BSA in 6% DMSO. After overnight mixing at room temperature, the spheres were washed extensively and blocked by 1 M glycine (pH 8.0) for 30 minutes.

[2] = test system: Aβ1-42-stimulated microglia; type: cell-based, rat; settings: for blocking of Aβ1-42 induced microglial neurotoxicity by peptides: 10 μmoles/liter peptide, 1 μmole/liter Aβ1-42; for IC50: read-out: ED50 (blocking of Aβ1-42 induced neurotoxicity), FIG. 16B
Excerpt: (§3) Briefly, hippocampal cells obtained from embryonic stage 18 rat fetuses were dispersed mechanically in the presence of 0.125% trypsin and plated onto poly-L-lysine coated glass coverslips in 24 well plates at 250,000 cells per well (resulting in adhering cell densities of about 1250 cells per mm^2) in chemically-defined N2 culture media containing 5% fetal bovine serum. Gradual reduction of serum began on day 10 in vitro with daily 1:1 volume replacements with chemically-defined media, until a final concentration of 0.6% serum was achieved. […] In order to eliminate microglia, cultures were exposed to saporin (sap; a ribosome-inactivating protein; Davis and Wiley, 1989) coupled to acetylated LDL (ac-LDL) at a concentration of 10 μg/ml for 12 hours. […] Cultures depleted of microglia were then exposed to test substances in the presence or absence of exogenous microglia (100,000 cells per culture). […] Controls included cultures without saporin-treatment, cultures without test substances, and cultures with test substances but lacking microglia.
as §1

[3] = test system: reactive microglia in rat neocortex; experiment: brain inflammatory response after infusion into neocortex of adult rat; type: in vivo; settings: 0.5 nmoles Aβ1-42, co-infusion of 1.0 nmole peptide; 5 days
human microglia [4] = experiment: induction of neuron-killing human microglia; type: cell-based; settings: 1 μmole/liter synthetic peptides
human microglia [5] = experiment: nitrite/nitrate production, human microglia; type: cell-based
Protocol: Nitrites and nitrates, stable byproducts of nitric oxide synthetase (NOS) served as markers for nitric oxide (NO) synthesis (Ignarro, 1990). […]; for 24 to 72 hours incubated in the presence of neuritic/core plaques or Aβ peptides) were measured by the Griess method set forth by Beckman et al., 1990 against a standard curve ranging from 0.1 to 50.0 μM nitrate.

[6] = type: physicochemical; settings: chemically defined culture media, 37° C.; Table 2
Excerpt: Solubility of peptides is described for chemicallydefined culture media a […]

[7] = test system: rat microglia / hippocampal neurons; settings: for induction of neurotoxic microglia / neuron killing: rat microglia, mostly 1 μmole/l
hippocampal neurons = type: cell-based, rat; settings: absence of microglia
Excerpt: as §3, §1

[8] = test system: plaque-stimulated microglia; experiment: blocking of plaque-induced microglial neurotoxicity; type: cell-based, rat; settings: FIG. 16C
scavenger receptor = experiment: inhibition of Spheresmal-BSA binding to microglia; parameters: species or system rat
Protocol: as §2
Each well then received 250,000 SpheresAβ1-42 or Spheresmal-BSA in the presence or absence of Aβ peptides, GAGs, or scavenger receptor ligands. Binding assays were carried out at 37° C. for 4 hours after which coverslips were dipped 10 times in phosphate buffer and fixed with 4% buffered paraformaldehyde. Microsphere adherence to cells was scored at 200 magnification with phase/fluorescence microscopy. Data, expressed as % inhibition of sphere binding, was calculated from total number of spheres per field noted for control cultures receiving spheres only. Values are based upon at least 3 coverslips from 2 independent experiments. […]

NCCc1ccc(O)cc1 [tyramine]
protective effect ([1]; 10 μM, 72 hours, FIG. 30): completely prevented neuron death
neuroprotective activity (structure/function) ([1]; Example 14): enhance neuroprotective effects
EC50 ([1]; Rattus norvegicus, Aβ-stimulated microglia, 72 h, FIG. 31, read-out: ED50 (neuroprotection)): ~200 nM
inhibition of killing action of NTox applied to neurons (NTox): prevented neuronal injury
protection against quinolinic acid (quinolinic acid (QUIN)): did not occur with quinolinic acid

Aβ1-5: Aβ peptide residues 1-5 (DAEFR; Amyloid-beta protein 42; UniProt P05067 672-676, looked up, fragment)
binding of peptide-coupled microspheres to microglia (rat microglia): did not
inhibition of SpheresAβ1-42 binding by peptides (microglia): did not
blocking of Aβ1-42 induced microglial neurotoxicity by peptides [2]: did not
local brain inflammatory response [3]: did not alter inflammation

Aβ1-40: synthetic human β-amyloid peptide 1-40
induction of neurotoxic human microglia (human microglia [4]): very potent inducers of neurotoxic human microglia; also recorded: stimulated release of neurotoxin from human microglia
binding of peptide-coupled microspheres to microglia (rat microglia): marked glial binding
release of nitrate or nitrite, human microglia (human microglia [5]): did not bring about release of nitrate or nitrites
Solubility [6]: moderately soluble
neuron killing, microglia separated from neurons (no contact) [7]: stimulated microglia to destroy neurons
ED50 (neuron killing via microglia) ([7]; 500 microglia per mm^2): ~80 nM
induction of neurotoxic microglia / neuron killing ([7]; listed as A1-40): neuron killing could be induced
killing of neurons ([7]; rat, hippocampal neurons, 72 h, 1 µM): 70-80%

Aβ1-43: small Aβ peptide (as printed)
direct neurotoxicity without microglia (hippocampal neurons): did not produce neurotoxicity
induction of neurotoxic microglia / neuron killing [7]: did not produce neurotoxicity

Aβ13-16: residues His13, His14, Gln15, and Lys16 (the HHQK domain within Aβ) (Amyloid-beta protein 42; UniProt P05067 684-687, looked up, fragment)
blocking of Aβ1-42 induced microglial neurotoxicity by peptides [2]: blocked neurotoxin production
blocking of Aβ1-42 induced microglial neurotoxicity by peptides ([2]; listed as HHQK): one of the most potent plaque suppressor peptides identified
IC50 [2]: ~30 nM
blocking of plaque-induced microglial toxicity by peptides [8]: blocked plaque-induced toxicity in vitro
local brain inflammatory response [3]: blocks the interaction of Aβ1-42 with microglia in vivo and reduces the local brain inflammatory response; also recorded: markedly reduced

Aβ13-20: Aβ peptide residues 13-20 (HHQKLVFF; Amyloid-beta protein 42; UniProt P05067 684-691, looked up, fragment)
IC50 [2]: 250 nM
blocking of plaque-induced microglial toxicity by peptides [8]: blocked plaque-induced toxicity in vitro

Aβ17-42: Aβ peptide residues 17-42 (LVFFAEDVGSNKGAIIGLMVGGVVIA; Amyloid-beta protein 42; UniProt P05067 688-713, looked up, fragment)
binding of peptide-coupled microspheres to microglia (rat microglia): neither binds to microglia nor elicits toxicity
Solubility [6]: very insoluble

dextran sulfate
inhibition of SpheresAβ1-42 binding by GAGs and scavenger receptor ligands (microglia; heparin sulfate 50 μg/ml, dextran sulfate 500 μg/ml, ac-LDL 200 μg/ml): only heparin sulfate blocked; also recorded: not similar compounds
inhibition of Spheresmal-BSA binding by ligands (scavenger receptor; dextran sulfate 500 μg/ml, ac-LDL 200 μg/ml, Aβ1-16 10 μmole/l): blocked

rodent Aβ1-40: rodent Aβ1-40 (5Arg-Gly, 10Tyr-Phe, 13His-Arg) (DAEFGHDSGFEVRHQKLVFFAEDVGSNKGAIIGLMVGGVV; Amyloid-beta protein 40; UniProt P12023 672-711, looked up)
induction of neurotoxic human microglia (human microglia [4]): inactive
binding of peptide-coupled microspheres to microglia (rat microglia): little cell binding
inhibition of SpheresAβ1-42 binding by peptides (microglia): unable to block
induction of neurotoxic microglia / neuron killing [7]: did not activate microglia
induction of neurotoxic microglia / neuron killing ([7]; listed as Aβ1-40rodent): neither
induction of neurotoxic microglia / neuron killing ([7]; listed as Rodent Aβ1-40): did not activate microglia
induction of neurotoxic microglia / neuron killing ([7]; listed as rodent form of Aβ1-40): inactive

trypsin
SpheresAβ1-42 binding after enzymatic treatment of microglia (microglia): reduced by trypsin
SpheresAβ1-42 binding after enzymatic treatment of microglia (microglia; listed as trypsinization): markedly reduced
Spheresmal-BSA binding after enzymatic treatment of microglia (scavenger receptor; trypsin 5000 units/ml, chondroitinase ABC 0.02 units/ml): reduced by trypsin

From patent US6043283A, “Tyramine compounds and their neuronal effects” (priority 1997, dated 2000)
